Assay results taken from the supplement of paper PMC10307832.

Experiments:
Experiment in all cases: relative viability (nuclei count vs DMSO), 5 days (fraction); higher = more cells survive
VX-11e + Trametinib = compound: CC1=CN=C(N=C1C2=CNC(=C2)C(=O)N[C@H](CO)C3=CC(=CC=C3)Cl)NC4=C(C=C(C=C4)F)Cl [VX-11e] + CC(=O)Nc1cccc(-n2c(=O)n(C3CC3)c(=O)c3c(Nc4ccc(I)cc4F)n(C)c(=O)c(C)c32)c1 [Trametinib] (partner 0.02 µM)
Summary of the method: (§1)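 Values are medians from duplicate plates. Each reflects relative viability, defined as the nuclei count of treated wells over that of vehicle wells. Lung cancer cell lines in 1536-well plates were pin-tool dosed one day after seeding with one drug alone or with a fixed anchor-drug dose plus five library-drug doses (not always all listed) in √10 steps, then fixed, stained and imaged at 4× after 5 days.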

VX-11e + Bortezomib = compound: CC1=CN=C(N=C1C2=CNC(=C2)C(=O)N[C@H](CO)C3=CC(=CC=C3)Cl)NC4=C(C=C(C=C4)F)Cl [VX-11e] + CC(C)C[C@H](NC(=O)[C@H](Cc1ccccc1)NC(=O)c1cnccn1)B(O)O [Bortezomib] (partner 0.002 µM)
Summary of the method: as §1

VX-11e + Pictilisib = compound: CC1=CN=C(N=C1C2=CNC(=C2)C(=O)N[C@H](CO)C3=CC(=CC=C3)Cl)NC4=C(C=C(C=C4)F)Cl [VX-11e] + CS(=O)(=O)N1CCN(Cc2cc3nc(-c4cccc5[nH]ncc45)nc(N4CCOCC4)c3s2)CC1 [Pictilisib] (partner 1 µM)
Summary of the method: as §1

VX-11e + Olaparib = compound: CC1=CN=C(N=C1C2=CNC(=C2)C(=O)N[C@H](CO)C3=CC(=CC=C3)Cl)NC4=C(C=C(C=C4)F)Cl [VX-11e] + O=C(c1cc(Cc2n[nH]c(=O)c3ccccc23)ccc1F)N1CCN(C(=O)C2CC2)CC1 [Olaparib] (partner 8 µM)
Summary of the method: as §1

Cell Line	relative viability (VX-11e + Trametinib; first compound 0.04 µM)	relative viability (VX-11e + Trametinib; first compound 0.1265 µM)	relative viability (VX-11e + Trametinib; first compound 0.4 µM)	relative viability (VX-11e + Trametinib; first compound 1.265 µM)	relative viability (VX-11e + Trametinib; first compound 4 µM)	relative viability (VX-11e + Bortezomib; first compound 0.04 µM)	relative viability (VX-11e + Bortezomib; first compound 0.1265 µM)	relative viability (VX-11e + Bortezomib; first compound 0.4 µM)	relative viability (VX-11e + Bortezomib; first compound 1.265 µM)	relative viability (VX-11e + Bortezomib; first compound 4 µM)	relative viability (VX-11e + Pictilisib; first compound 0.04 µM)	relative viability (VX-11e + Pictilisib; first compound 0.1265 µM)	relative viability (VX-11e + Pictilisib; first compound 0.4 µM)	relative viability (VX-11e + Pictilisib; first compound 1.265 µM)	relative viability (VX-11e + Pictilisib; first compound 4 µM)	relative viability (VX-11e + Olaparib; first compound 0.04 µM)	relative viability (VX-11e + Olaparib; first compound 0.1265 µM)	relative viability (VX-11e + Olaparib; first compound 0.4 µM)	relative viability (VX-11e + Olaparib; first compound 1.265 µM)	relative viability (VX-11e + Olaparib; first compound 4 µM)
NCI-H1437	0.539	0.472	0.574	0.358	0.305	0.597	0.316	0.306	0.312	0.202	0.36	0.281	0.356	0.163	0.124	0.621	0.619	0.653	0.529	0.476
NCI-H1650	0.76	0.589	0.562	0.553	0.397	0.192	0.198	0.235	0.199	0.195	0.531	0.451	0.171	0.276	0.303	0.685	0.851	0.814	0.793	0.807
NCI-H1651	0.881	0.808	0.78	0.691	0.781	0.946	0.879	0.921	0.922	0.871	0.494	0.519	0.504	0.548	0.536	0.169	0.201	0.209	0.152	0.177
NCI-H1666	0.866	0.77		0.848	0.726	0.877	0.862	0.627	0.678	0.505	0.511	0.406	0.367	0.336	0.294	0.756	0.77		0.742	0.649
NCI-H1734	0.619	0.675	0.536	0.557	0.375	0.965	0.826	0.726	0.513	0.365	0.358	0.39	0.376	0.31	0.245	0.632	0.601	0.607	0.542	0.365
NCI-H1755	0.751	0.755	0.78	0.778	0.612	0.965	0.931	0.884	0.923	0.608	0.397	0.337	0.152	0.357	0.16	0.903	0.853	0.874	0.942	0.747
NCI-H1792		0.392		0.322	0.102	1.01	0.912	0.94	0.876	0.686	0.299	0.2	0.319	0.27	0.0521		0.541		0.518	0.287
NCI-H1915	0.305	0.284	0.233	0.204	0.114	1.02	0.923	1.03	0.939	0.757	0.556	0.757	0.636	0.627	0.282	0.277	0.23	0.305	0.225	0.231
NCI-H1975	0.341	0.295	0.171	0.255	0.21	0.475	0.372	0.301	0.281	0.178	0.237	0.278	0.2	0.222	0.202	0.84	0.808	0.806	0.803	0.31
NCI-H1993		0.493	0.576	0.506	0.451		1.04		0.742	0.765		0.805		0.814	0.865		1.13	0.895	0.879	0.785
NCI-H2009	0.22	0.209	0.247	0.162	0.169	1.08	0.944	0.797	0.254	0.201	0.712	0.671	0.478	0.23	0.186	0.684	0.635	0.805	0.769	0.378
NCI-H2023	0.601	0.495	0.391	0.292	0.171	0.993	1.03	0.098	0.394	0.418	0.2	0.215	0.0991	0.151	0.119	0.541	0.45	0.507	0.475	0.346
NCI-H2085	0.495	0.516	0.524	0.482	0.497	1.04	0.979	1.03	0.898	0.825	0.361	0.51	0.441	0.452	0.357	0.835	0.758	0.709	0.706	0.598
NCI-H2087	0.255	0.182		0.181	0.182	0.863	0.639	0.582	0.921	0.287	0.778	0.734	0.271	0.445	0.273	0.646	0.659		0.531	0.252
NCI-H2126	0.543	0.539	0.575	0.523	0.473		1.06	1.01	1.14	1.02		0.518	0.393	0.384	0.392	0.885	0.874	0.864	0.879	0.751
NCI-H2228	0.518	0.466	0.0868	0.273	0.128	1.18	1.18	0.221	0.681	0.284	0.355	0.464	0.0994	0.854	0.188	0.681	0.631	0.362	0.417	0.21
NCI-H2347	0.282	0.261	0.297	0.241	0.267	0.87	0.801	0.815	0.738	0.435	0.813	0.662	0.491	0.36	0.298	0.585	0.6	0.636	0.518	0.36
NCI-H2405	0.716	0.582	0.271	0.649	0.283	1.04	0.953	0.988	0.952	0.601	0.3	0.388		0.412	0.125	0.961	0.814	0.333	0.873	0.379
NCI-H3122	0.236	0.239	0.177	0.29	0.148	1.11	1.03	0.743	0.832	0.676	0.633	0.57	0.255	0.406	0.212	0.717	0.661	0.689	0.558	0.468
PC-3 [JPC-3]	0.671	0.653	0.59	0.572	0.527	0.91	0.828	0.803	0.993	0.719	0.608	0.684	0.703	0.644	0.635	1.23	1.09	1.09	1.19	0.901
PC-14	0.734	0.697	0.624	0.413	0.216	0.967	0.798	0.818	0.869	0.527	0.661	0.619	0.583	0.494	0.207	0.269	0.261	0.222	0.22	0.214
RERF-LC-KJ	0.888	0.766	0.897	0.921	0.667	1	1.04		1.03	0.894	0.63	0.521	0.614	0.641	0.484	1.11	0.884	0.945	0.921	0.979
SK-LU-1	0.427	0.332	0.179	0.25	0.274	1.01	0.718		0.895	0.452	0.442	0.551	0.249	0.37	0.195	0.537	0.446	0.394	0.365	0.239
SW 1573		0.567	0.498	0.401	0.328	0.812	0.854	1.02	0.826	0.64	0.509	0.522	0.404	0.307	0.298	0.551	0.472	0.453	0.398	0.23
UMC-11	0.563	0.626	0.563	0.357	0.551	0.562	0.668	0.714	0.598	0.551	0.355	0.943	0.755	0.401	0.609	0.377	0.369	0.331	0.335	0.38
